Target: T1, Homoserine kinase (Escherichia coli (strain K12), UniProt P00547)
T1 sequence (P00547 whole entry): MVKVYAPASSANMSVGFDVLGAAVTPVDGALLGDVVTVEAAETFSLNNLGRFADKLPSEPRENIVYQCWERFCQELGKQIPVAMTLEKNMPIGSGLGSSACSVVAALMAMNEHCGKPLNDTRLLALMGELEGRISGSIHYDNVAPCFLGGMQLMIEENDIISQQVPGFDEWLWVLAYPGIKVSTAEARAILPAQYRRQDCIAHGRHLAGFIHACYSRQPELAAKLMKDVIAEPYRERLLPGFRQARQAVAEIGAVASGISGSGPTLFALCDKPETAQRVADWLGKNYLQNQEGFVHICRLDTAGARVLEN
Experiment: Enzyme Inhibition Assay
Details: pH 7.5; 37 °C
Description: The phosphorylation of L-Hse was monitored by coupling the formation of ADP with pyruvate kinase and lactate dehydrogenase (PK/LDH). The resulting oxidation of NADH was monitored at 340 nm by using a SpectraMax plate reader in a 96-well format.

SMILES	Ki [µM]
CC1NN(c2ccccc2)c2nc(C(F)(F)F)cc(O)c21 (stereo unspecified) [Thr1 inhibitor, 6]	8.6
C=CC(=O)c1ccc2ccccc2c1 [Thr1 inhibitor, 1]	32
O=C1OC2C=CCC=C2C(=O)C1Cc1c(O)c2ccccc2oc1=O (stereo unspecified) [Thr1 inhibitor, 4]	0.46
O=C1C(O)c2cc(O)c(O)cc2OC1c1ccc(O)c(O)c1 (stereo unspecified)	27.1
CC(=O)C(C#N)C(=O)Nc1cc(Br)ccc1Br (stereo unspecified)	12
CC(C)Cc1nc2sc3c(c2c(=O)o1)CCCCC3 [Thr1 inhibitor, 5]	35.8

Reference: BindingDB's records for doi:10.1002/cbic.201100121 (Mcmaster University, 2011)
